Data set [1] concerns the target T1, CYP3A4 (Homo sapiens, UniProt P08684). Conditions: background statement; cited from earlier work.
Data set [2] deals with CYP3A. The note with it: in vitro, cited from earlier work.
Data set [3] concerns S. pneumoniae ATCC 49619 (CLSI QC strain). In words: Minimum inhibitory concentration (MIC), broth microdilution, QC strain. Type of data set: cell-based, Streptococcus pneumoniae. The note with it: MIC in duplicates. The procedure: (§1) Protocols for Determining Minimum Inhibitory Concentration (MIC) of Test Compounds Against Streptococcus Pneumoniae Strains
(§2) The test strains are revived from frozen stock on blood agar plates and incubated at 35±2° C. for 18-20 hours in 5% CO2. Colonies are directly suspended from an overnight grown agar culture in CAMHB/saline and optical density adjusted to 0.5 McFarland turbidity standard (1-2×10^8 cfu/mL). Adjusted cultures are further diluted 1:100 using CAMHB such that after inoculation each well finally contains ˜5×10^5 cfu/mL. For broth dilution testing of Streptococcus species, CAMHB is supplemented with 2.5-5% v/v LHB. Colony counts of inoculum suspension is estimated by ten-fold serial dilutions and plating each dilution on agar plate. After incubation, the plates are observed for growth and microbial counts determined.
(§3) Compounds are weighed and dissolved in water/DMSO/other solvent to yield 1 mg/mL stock solution. Serial two-fold dilutions of the test compounds and reference antibiotics are prepared. 50 μL of the diluted drug solutions are dispensed in wells of microtiter trays (96 well).
(§4) To each of the wells of the microtiter tray, 50 μL of the diluted organism are inoculated to obtain a final inoculum density of ˜5×10^5 cfu/mL. Broth control, compound control and organism control wells are set up.
(§5) MIC testing are done in duplicates
(§6) MIC is defined as the lowest concentration of an antimicrobial agent that prevents visible growth of a microorganism in broth dilution susceptibility test.
(§7) After incubation period, growth of organism in the wells are detected by unaided eye facilitated by a viewing device. The amount of growth in the drug-containing wells are compared with the amount of growth in the organism-control wells.

For data set [4], the system named is S. pneumoniae AUCC488, macrolide & penicillin resistant. In words: Minimum inhibitory concentration (MIC), broth microdilution, AUCC488. Type of data set: cell-based, Streptococcus pneumoniae. The procedure: as §1, §2, §3, §4, §5, §6, §7
The test system of data set [5] is S. pneumoniae AUCC489, macrolide & penicillin resistant. Briefly: Minimum inhibitory concentration (MIC), broth microdilution, AUCC489. In kind it is cell-based, Streptococcus pneumoniae. The procedure: as §1, §2, §3, §4, §5, §6, §7
Data set [6] deals with T1, CYP3A4. Briefly: biochemical.
Description: (§8) Cytochrome P4503A4 Inhibition Assay for Determining IC50
(§9) The potential of the compound to inhibit CYP 3A4 was tested by the LC-MS/MS based probe substrate method using human liver microsomes. Midazolam or testosterone, which are metabolized to hydroxymidazolam or hydroxytestosterone by CYP 3A4, were the probe substrates used. […] NADPH was added as the cofactor. […] After incubation for ten minutes, the amount of 1-hydroxymidazolam or 6β-hydroxyltestosterone formed was determined by LC-MS/MS method as a measure of enzyme activity. Percent inhibition of enzyme activity was calculated based on the amount of metabolites (1-hydroxymidazolam or 6β-hydroxyltestosterone) formed for each sample relative to the basal control and plotted in a curve versus the compound concentration to obtain the IC50.
The subject of data set [7] is S. pneumoniae AUCC479, macrolide & penicillin sensitive. Briefly: Minimum inhibitory concentration (MIC), broth microdilution, AUCC479. Type of data set: cell-based, Streptococcus pneumoniae. On the procedure: as §1, §2, §3, §4, §5, §6, §7
The test system of data set [8] is S. pneumoniae AUCC483, macrolide resistant & penicillin sensitive. Briefly: Minimum inhibitory concentration (MIC), broth microdilution, AUCC483. In kind it is cell-based, Streptococcus pneumoniae. On the procedure: as §1, §2, §3, §4, §5, §6, §7
The target of data set [9] is P-gp (Homo sapiens, UniProt P08183). The note with it: background statement; cited from earlier work.
P-gp, sequence (P08183 whole entry): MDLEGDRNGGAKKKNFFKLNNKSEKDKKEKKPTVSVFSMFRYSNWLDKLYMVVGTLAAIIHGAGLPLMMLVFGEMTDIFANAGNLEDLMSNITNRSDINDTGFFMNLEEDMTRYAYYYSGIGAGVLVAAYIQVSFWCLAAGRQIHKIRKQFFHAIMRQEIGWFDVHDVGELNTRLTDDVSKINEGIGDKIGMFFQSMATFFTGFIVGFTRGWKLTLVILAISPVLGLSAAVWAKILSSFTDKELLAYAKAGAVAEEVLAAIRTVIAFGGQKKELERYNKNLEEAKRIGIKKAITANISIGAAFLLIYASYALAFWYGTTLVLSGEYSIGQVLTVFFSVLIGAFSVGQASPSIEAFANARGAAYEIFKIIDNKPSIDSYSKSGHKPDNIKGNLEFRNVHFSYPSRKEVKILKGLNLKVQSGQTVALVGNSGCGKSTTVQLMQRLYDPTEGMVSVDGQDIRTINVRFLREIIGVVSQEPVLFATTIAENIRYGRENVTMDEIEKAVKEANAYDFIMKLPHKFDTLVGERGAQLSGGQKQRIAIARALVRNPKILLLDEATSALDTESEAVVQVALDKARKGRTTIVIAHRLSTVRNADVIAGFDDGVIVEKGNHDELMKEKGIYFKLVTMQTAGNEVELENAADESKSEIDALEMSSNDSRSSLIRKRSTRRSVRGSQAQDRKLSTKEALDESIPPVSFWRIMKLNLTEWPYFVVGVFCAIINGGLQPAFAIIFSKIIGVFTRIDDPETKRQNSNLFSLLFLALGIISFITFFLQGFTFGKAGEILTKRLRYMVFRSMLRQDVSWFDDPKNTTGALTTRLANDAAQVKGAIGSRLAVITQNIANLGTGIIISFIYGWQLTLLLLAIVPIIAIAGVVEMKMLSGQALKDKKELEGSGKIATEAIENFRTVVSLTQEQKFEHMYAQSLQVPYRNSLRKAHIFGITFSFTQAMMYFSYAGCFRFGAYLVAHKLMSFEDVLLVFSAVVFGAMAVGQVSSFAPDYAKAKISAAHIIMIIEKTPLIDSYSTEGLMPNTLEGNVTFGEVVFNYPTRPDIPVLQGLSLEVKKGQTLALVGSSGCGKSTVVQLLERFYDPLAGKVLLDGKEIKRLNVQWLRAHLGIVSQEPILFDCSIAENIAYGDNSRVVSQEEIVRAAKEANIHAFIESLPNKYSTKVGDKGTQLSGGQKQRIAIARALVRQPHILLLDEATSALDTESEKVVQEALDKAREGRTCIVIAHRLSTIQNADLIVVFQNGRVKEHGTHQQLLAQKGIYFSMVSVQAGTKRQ
Data set [10] concerns macrolide-resistant S. pneumoniae strains. In words: Mouse lung infection models. In kind it is in vivo.
The nature of data set [11]: Oral bioavailability and tissue distribution after a single oral treatment. Type of data set: in vivo.
In data set [12] the target is T1, CYP3A4. In words: Cytochrome P4503A4 inhibition assay, human liver microsomes, LC-MS/MS probe substrate method. Conditions: for IC50: human liver microsomes 0.1 mg/mL, 10 min; for CYP3A4 inhibition in comparison with solithromycin and ketoconazole: summary of Table 1.
Description: as §8, §9

In brackets after ≈: the same amount, converted by molar mass. Several values for one entry are separate records, joined by “and”; a condition that tells them apart may be missing. Identical values can stand only once.

T1 sequence (P08684 whole entry): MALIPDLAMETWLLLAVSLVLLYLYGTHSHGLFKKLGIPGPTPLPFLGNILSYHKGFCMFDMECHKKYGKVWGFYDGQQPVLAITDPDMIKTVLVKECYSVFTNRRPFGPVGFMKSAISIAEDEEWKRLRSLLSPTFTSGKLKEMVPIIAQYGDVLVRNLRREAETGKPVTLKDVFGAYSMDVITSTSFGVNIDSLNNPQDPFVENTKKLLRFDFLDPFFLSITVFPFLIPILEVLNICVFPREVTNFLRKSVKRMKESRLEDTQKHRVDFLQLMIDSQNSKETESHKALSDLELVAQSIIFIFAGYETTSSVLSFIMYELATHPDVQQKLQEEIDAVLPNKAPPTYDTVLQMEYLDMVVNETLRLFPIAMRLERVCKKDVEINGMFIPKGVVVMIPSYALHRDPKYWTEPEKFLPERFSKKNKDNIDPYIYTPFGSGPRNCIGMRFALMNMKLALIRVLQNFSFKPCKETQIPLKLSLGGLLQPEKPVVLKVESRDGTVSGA

For `CC[C@H]1OC(=O)[C@H](C)C(=O)[C@H](C)[C@@H](O[C@@H]2O[C@H](C)C[C@H](N(C)C)[C@H]2O)[C@](C)(OC/C=C/c2cnc3ccccc3c2)C[C@@H](C)C(=O)[C@H](C)[C@H]2NC(=O)O[C@@]21C` [cethromycin], the “inhibition of CYP3A4” value in data set [1] is reported as “strong inhibition”. Moreover, in [2] (Katz et al / FDA briefing document, read-out: IC50 of CYP3A-dependent nifedipine oxidation), the 50% inhibitory concentration (IC50) was 630 nM. Further, the “IC50 of CYP3A-dependent nifedipine oxidation” value in data set [2] (same value in ng/mL) was 0.4825 µg/mL.

In the case of `CC[C@H]1OC(=O)[C@@](C)(F)C(=O)[C@H](C)[C@@H](O[C@@H]2O[C@H](C)C[C@H](N(C)C)[C@H]2O)[C@](C)(OC)C[C@@H](C)C(=O)[C@H](C)[C@H]2N(CCCCn3cc(-c4cccc(N)c4)nn3)C(=O)O[C@]12C` [solithromycin, reference compound], the minimum inhibitory concentration (MIC) in data set [3] (Streptococcus pneumoniae, ATCC49619 QC strain, read-out: MIC Strep. Pneumoniae ATCC49619 QC strain) lay within 0.004 to 0.015 µg/mL (≈ 4.73 to 17.8 nM). Moreover, the “MIC Strep. Pneumoniae AUCC 488 penR, macR M or iMLS” value (“MIC Strep. Pneumoniae AUCC 488 penR” below) in data set [4] fell in the range of 0.06 to 0.25 µg/mL. In [5], the “MIC Strep. Pneumoniae AUCC 489 penR, macR cMLS” value is 0.004 to 0.008 µg/mL. Also, the IC50 in [6] is 400 nM and 1490 nM. In data set [7], the “MIC Strep. Pneumoniae AUCC 479 penS, macS” value fell in the range of 0.004 to 0.015 µg/mL. Besides, in data set [1], the “inhibition of CYP3A4” value is “strong inhibitor”. Besides, the “MIC Strep. Pneumoniae AUCC 483 penS, macR cMLS” value in data set [8] fell in the range of 0.008 to 0.015 µg/mL. Besides, the “inhibition of P-gp” value in data set [9] is given as “moderate inhibitor”.

Regarding “(3aS,4R,7R,9R,10R,11R,13R,15R,15aR)-10-{[(2S,3R,4S,6R)-4-(dimethylamino)3-hydroxy-6-methyloxan-2-yl]oxy}-1-[3-(dimethylamino)propyl]-4-ethyl-3a,7,9,11,13,15-hexamethyl-11-{[(2E)-3-(quinolin-3-yl)prop-2-en-1-yl]oxy}tetradecahydro-1H-oxacyclotetradeca[4,3-d][1,3]oxazole-2,6,8,14-tetrone [Compound 13B]”, the “MIC Strep. Pneumoniae ATCC49619 QC strain” value in data set [3] is 0.015 to 0.03 µg/mL. Further, the “MIC Strep. Pneumoniae AUCC 488 penR” value in data set [4] was in the range of 0.12 to 0.25 µg/mL. For the same compound, in data set [10], the “efficacy in mouse lung infection models” value is reported as “demonstrated efficacy”. Moreover, in data set [11] (lungs, after a single oral treatment), the “time drug level in the lungs remained elevated” value is reported as “at least 8 hours”. In [11] (oral), the oral bioavailability entry is reported as “excellent” and the tissue distribution result is “excellent”. In addition, the “MIC Strep. Pneumoniae AUCC 489 penR, macR cMLS” value in data set [5] was in the range of 0.12 to 0.25 µg/mL. Besides, in data set [7], the “MIC Strep. Pneumoniae AUCC 479 penS, macS” value was in the range of 0.008 to 0.015 µg/mL. In addition, in data set [12] (read-out: IC50 CYP3A4 (midazolam), 5 μM midazolam), the half-inhibitory concentration (IC50) worked out at 6400 nM. For the same compound, in data set [12], the “CYP3A4 inhibition in comparison with solithromycin and ketoconazole” value is on record as “lower IC50 inhibition of CYP3A4 inhibition”. In addition, in data set [8], the “MIC Strep. Pneumoniae AUCC 483 penS, macR cMLS” value lay in the range of 0.12 to 0.25 µg/mL.

On to “(3aS,4R,7R,9R,10R,11R,13R,15R,15aR)-10-{[(2S,3R,4S,6R)-4-(dimethylamino)-3-hydroxy-6-methyloxan-2-yl]oxy}-4-ethyl-3a,7,9,11,13,15-hexamethyl-1-{2-[(2S)-1-methylpyrrolidin-2-yl]ethyl}-11-{[(2E)-3-(quinolin-3-yl)prop-2-en-1-yl]oxy}-tetradecahydro-1H-oxacyclotetradeca[4,3-d][1,3]oxazole-2,6,8,14-tetrone [Compound 13Q]”, for which, in [3], the “MIC Strep. Pneumoniae ATCC49619 QC strain” value lay in the range of 0.03 to 0.06 µg/mL. Also, in [4], the “MIC Strep. Pneumoniae AUCC 488 penR” value was 0.5 to 1 µg/mL. Besides, the “MIC Strep. Pneumoniae AUCC 489 penR, macR cMLS” value in data set [5] was 0.12 to 0.25 µg/mL. Moreover, the “MIC Strep. Pneumoniae AUCC 479 penS, macS” value in [7] lay within 0.015 to 0.03 µg/mL. For the same compound, in data set [12] (read-out: IC50 CYP3A4 (testosterone), 50 μM testosterone), the IC50 amounted to 4800 nM. Also, the “CYP3A4 inhibition in comparison with solithromycin and ketoconazole” value in data set [12] was “lower IC50 inhibition of CYP3A4 inhibition”. The “MIC Strep. Pneumoniae AUCC 483 penS, macR cMLS” value in data set [8] fell in the range of 0.12 to 0.25 µg/mL.

The values are drawn from patent US10717757B2, “Ketolides having antibacterial activity” (BIOPHARMATI SA, priority 2016, dated 2020).
